Some test systems named below: COLO 205; UACC-62; HCT-116; SF-539; SK-MEL-2; HOP-92; HCT-15; Malme-3M; SNB-75; ACHN; NCI-H226; OVCAR-4; SNB-78; MOLT-4; OVCAR-3; LXFL 529; OVCAR-5; SR; MDA-N; NCI/ADR-RES.
Experiment in all cases: growth of human tumour cells (NCI), 48 h

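Assay format: 96-well plates, 48-hour exposure. The concentration for 50% growth inhibition is given as GI50.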 Activity calls are given as the source filed them. Cut-off read from the data, not from the text of the source: active = GI50 up to about 1.1 µM and inactive = higher. Bounds are passed on as bounds.

Take `CC#C[C@@]1(O)CCCCC1O` (stereo partly drawn): the GI50 in the assay on COLO 205, in the assay on UACC-62, in the assay on HCT-116, in the assay with SF-539, in the assay with SK-MEL-2 and in the assay with HOP-92 was > 100 µM (inactive) throughout. In addition, the GI50 in the assay on HCT-15 is over 100 µM; with Malme-3M it was > 100 µM (inactive); in the assay with SNB-75, 66.8 µM (inactive); with ACHN, > 100 µM (inactive); in the assay with NCI-H226, > 100 µM (inactive); in the assay on OVCAR-4, > 100 µM (inactive). The GI50 in the assay with SNB-78, in the assay with MOLT-4 and in the assay on OVCAR-3 was > 100 µM (inactive) throughout.

Take `C[Si](C)(C)C1(Sc2ccccc2)SCCCS1`: the GI50 was 41.5 µM (inactive) with COLO 205; 35 µM (inactive) with UACC-62; 21.3 µM (inactive) in the assay on HCT-116; 24.9 µM (inactive) in the assay with SF-539; 58.9 µM (inactive) in the assay on SK-MEL-2; 32.8 µM (inactive) with HOP-92. In addition, the GI50 in the assay on HCT-15 was 27.2 µM; in the assay with Malme-3M, 70.6 µM (inactive); in the assay with SNB-75, 37.8 µM (inactive); in the assay on ACHN it was 35.9 µM (inactive); with LXFL 529 it was 34.4 µM (inactive); in the assay with OVCAR-4 it was 57.1 µM (inactive). Also, the GI50 with SNB-78 was 51.8 µM (inactive); in the assay on MOLT-4, 15.1 µM (inactive); in the assay with OVCAR-3, 30.1 µM (inactive); in the assay on OVCAR-5, > 100 µM (inactive).

Take `CCCCCc1cc(OC(=O)c2c(O)cc(OC)cc2CCCCC)cc(O)c1C(=O)O`: the GI50 was 18.2 µM (inactive) with COLO 205; 14.5 µM (inactive) in the assay with UACC-62; 16.8 µM (inactive) in the assay on SF-539; 16.8 µM (inactive) in the assay with SK-MEL-2; 16.4 µM (inactive) in the assay with HOP-92; 12.6 µM in the assay with HCT-15. Moreover, the GI50 in the assay on Malme-3M is 13 µM (inactive); in the assay with SNB-75, 17.2 µM (inactive); in the assay with ACHN, 17.3 µM (inactive); in the assay on LXFL 529, 16.5 µM (inactive); in the assay with OVCAR-4, 20 µM (inactive); with SNB-78 it was 30.9 µM (inactive). Further, the GI50 is 23.5 µM (inactive) in the assay with MOLT-4 and 19.1 µM (inactive) in the assay with OVCAR-5.

Consider `COc1ccc(C(=O)O)c(Br)c1OCc1ccccc1`, for which the GI50 with COLO 205, in the assay on UACC-62, with HCT-116, with SF-539, in the assay with SK-MEL-2 and in the assay on HOP-92 was > 100 µM (inactive) throughout. Besides, the GI50 in the assay with HCT-15 is over 100 µM; in the assay on SNB-75, > 100 µM (inactive); with ACHN it was > 100 µM (inactive); in the assay with LXFL 529, > 100 µM (inactive); with NCI-H226, > 100 µM (inactive); in the assay with OVCAR-4, > 100 µM (inactive). Moreover, the GI50 in the assay with SNB-78, in the assay with MOLT-4, with OVCAR-3 and in the assay with OVCAR-5 was > 100 µM (inactive) in each case.

Consider `O=C1COc2cc3c(cc2N1)SCCC(=O)N3`, for which the GI50 with COLO 205, in the assay with UACC-62, in the assay on HCT-116, with SF-539, with SK-MEL-2 and in the assay with HOP-92 was > 100 µM (inactive) in each case. Further, the GI50 in the assay with Malme-3M, in the assay on SNB-75, in the assay on LXFL 529, in the assay with NCI-H226, in the assay with SR and in the assay on OVCAR-4 was > 100 µM (inactive) in each case. The GI50 in the assay with MOLT-4 and in the assay on OVCAR-3 was > 100 µM (inactive) throughout.

With `[N-]=[N+]=CC(=O)CCC(N)C(=O)O` (stereo not drawn), the GI50 with COLO 205 is 1.15 µM (inactive); in the assay with UACC-62, 2.88 µM (inactive); in the assay with MDA-N, 1.32 µM (inactive); in the assay on SF-539, 0.482 µM (active); in the assay on SK-MEL-2, 53.7 µM (inactive); in the assay on HOP-92 it was 13.8 µM (inactive). For the same compound, the GI50 in the assay with HCT-15 was 0.815 µM; in the assay on NCI/ADR-RES, 8.38 µM (inactive); in the assay on Malme-3M, 6.38 µM (inactive); in the assay with SNB-75, 23.1 µM (inactive); with ACHN, 1.06 µM (active); with NCI-H226, 39.6 µM (inactive). The GI50 is 0.809 µM (active) with SR; 29.9 µM (inactive) in the assay with OVCAR-4; 4.25 µM (inactive) in the assay on SNB-78; 0.721 µM (active) with MOLT-4; 4.86 µM (inactive) in the assay on OVCAR-5.

In the case of `CC1=CC(/C=C(\C)CCCc2ccoc2)C2(OC(=O)C(C)=C2O)[C@H]2C1CC[C@@H]2C` (stereo partly drawn), the GI50 was 21.9 µM (inactive) in the assay on COLO 205; 14.4 µM (inactive) in the assay on UACC-62; 15.6 µM (inactive) with HCT-116; 17.5 µM (inactive) in the assay on SF-539; 17.9 µM (inactive) in the assay with HOP-92; 15.5 µM with HCT-15. In addition, the GI50 in the assay with Malme-3M is 26.6 µM (inactive); with SNB-75, 33.7 µM (inactive); with ACHN, 19.8 µM (inactive); with LXFL 529 it was 18.7 µM (inactive); with NCI-H226, 22.7 µM (inactive); in the assay with SNB-78 it was 30.5 µM (inactive). The GI50 in the assay with MOLT-4 was 19.2 µM (inactive); with OVCAR-3, 21.4 µM (inactive).

Consider `CC(C#N)c1cn(S(=O)(=O)c2ccccc2)c2ccccc12` (stereo not drawn), for which the GI50 in the assay on COLO 205 was > 100 µM (inactive); with UACC-62 it was 55.1 µM (inactive); in the assay on HCT-116, 40.1 µM (inactive); in the assay on SF-539 it was 68.1 µM (inactive); in the assay with SK-MEL-2, 37.1 µM (inactive); with HOP-92 it was 12.4 µM (inactive). In addition, the GI50 with HCT-15 was 53.6 µM; with Malme-3M, 35.7 µM (inactive); with SNB-75, 8.95 µM (inactive); with ACHN, 33.3 µM (inactive); with LXFL 529 it was 34.9 µM (inactive); in the assay on NCI-H226, 25.7 µM (inactive). Moreover, the GI50 is 30.8 µM (inactive) with SR; 34 µM (inactive) in the assay with OVCAR-4; 35.9 µM (inactive) with MOLT-4; 53.1 µM (inactive) in the assay with OVCAR-3; > 100 µM (inactive) with OVCAR-5.

In the case of `C/C(=N\N(C)C)C(CN(C)C)C(c1ccccc1)c1c(O)c2ccccc2oc1=O` (stereo not drawn), the GI50 was > 100 µM (inactive) in the assay on COLO 205; > 100 µM (inactive) in the assay on UACC-62; > 100 µM (inactive) in the assay with HCT-116; > 100 µM (inactive) in the assay on SK-MEL-2; 70.5 µM (inactive) with HOP-92; over 100 µM with HCT-15. Moreover, the GI50 in the assay with Malme-3M is > 100 µM (inactive); in the assay on SNB-75 it was 30.3 µM (inactive); in the assay on ACHN it was > 100 µM (inactive); with LXFL 529 it was > 100 µM (inactive); with NCI-H226, > 100 µM (inactive); in the assay on OVCAR-4, > 100 µM (inactive). In addition, the GI50 in the assay with SNB-78, in the assay with MOLT-4, in the assay with OVCAR-3 and in the assay on OVCAR-5 was > 100 µM (inactive) in each case.

Regarding `Cc1cccc(C(C)(C)C)c1NC(=O)CC1Sc2ccccc2NC1=O` (stereo not drawn), the GI50 in the assay with COLO 205 was 24 µM (inactive); in the assay on UACC-62, 68.7 µM (inactive); in the assay on HCT-116, 22.4 µM (inactive); in the assay on SF-539, > 100 µM (inactive); in the assay with HOP-92, 3.8 µM (inactive); in the assay on Malme-3M, > 100 µM (inactive). Further, the GI50 in the assay on SNB-75 was > 100 µM (inactive); with ACHN, 57.5 µM (inactive); in the assay on LXFL 529 it was 52.6 µM (inactive); in the assay on NCI-H226, 94.2 µM (inactive); in the assay on OVCAR-4, > 100 µM (inactive); in the assay with MOLT-4, 43.3 µM (inactive). The GI50 is 55.7 µM (inactive) with OVCAR-3 and > 100 µM (inactive) with OVCAR-5.

For the origin of these results see ChEMBL document CHEMBL1201862, “PubChem BioAssay data set” (2004).
